One block for each compound: values may come before it.
Key:
Human Calpain 1/NS1 = target: T1, Human Calpain 1/NS1 (Homo sapiens, UniProt P07384); experiment: Calpain inhibition, continuous fluorescence (FRET substrate) assay, calpain 1; type: biochemical; settings: SensoLyte 520 FRET substrate, 25C
T1 sequence (P07384 1-714): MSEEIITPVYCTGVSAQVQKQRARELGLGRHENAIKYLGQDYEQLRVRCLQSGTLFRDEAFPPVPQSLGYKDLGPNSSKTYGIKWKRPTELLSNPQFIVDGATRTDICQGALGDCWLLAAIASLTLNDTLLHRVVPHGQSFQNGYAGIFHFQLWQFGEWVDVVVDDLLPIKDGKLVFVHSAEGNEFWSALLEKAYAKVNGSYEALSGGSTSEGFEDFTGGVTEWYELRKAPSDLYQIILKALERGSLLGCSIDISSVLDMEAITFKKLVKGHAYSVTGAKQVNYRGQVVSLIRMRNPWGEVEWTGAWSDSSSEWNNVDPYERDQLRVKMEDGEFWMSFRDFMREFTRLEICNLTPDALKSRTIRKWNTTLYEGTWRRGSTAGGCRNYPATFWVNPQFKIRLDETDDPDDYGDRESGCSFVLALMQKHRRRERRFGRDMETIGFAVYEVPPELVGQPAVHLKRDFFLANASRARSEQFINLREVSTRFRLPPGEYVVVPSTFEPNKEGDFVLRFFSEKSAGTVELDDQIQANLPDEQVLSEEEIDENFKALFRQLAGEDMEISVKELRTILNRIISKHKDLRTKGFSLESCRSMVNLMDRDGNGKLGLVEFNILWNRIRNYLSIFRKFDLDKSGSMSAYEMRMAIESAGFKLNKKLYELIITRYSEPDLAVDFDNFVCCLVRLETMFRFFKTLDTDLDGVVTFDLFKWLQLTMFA
T1 sequence (P04632 1-268 partner): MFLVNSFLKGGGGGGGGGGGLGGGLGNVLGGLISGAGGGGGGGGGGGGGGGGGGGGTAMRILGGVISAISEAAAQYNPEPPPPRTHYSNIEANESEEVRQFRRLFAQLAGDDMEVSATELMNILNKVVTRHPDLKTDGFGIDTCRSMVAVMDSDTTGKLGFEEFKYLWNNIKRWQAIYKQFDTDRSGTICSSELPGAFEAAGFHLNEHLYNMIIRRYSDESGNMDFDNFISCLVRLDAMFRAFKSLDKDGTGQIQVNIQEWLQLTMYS
Method in brief: (§1)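 Calpains preincubated with serially diluted inhibitors at 25 °C in 50 mM Tris pH 7.5, 100 mM NaCl, 1 mM DTT; CaCl2 plus 5-FAM/QXL 520 FRET substrate started the reaction. Fluorescence (490/520 nm) read 10 min; rates from 1-5 min slopes, IC50 from 4-parameter logistic fit.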

Human Calpain 9/NS1 = target: T2, Human Calpain 9/NS1 (Homo sapiens, UniProt O14815); experiment: Calpain inhibition, continuous fluorescence (FRET substrate) assay, calpain 9; type: biochemical; settings: SensoLyte 520 FRET substrate, 25C
T2 sequence (O14815 1-690): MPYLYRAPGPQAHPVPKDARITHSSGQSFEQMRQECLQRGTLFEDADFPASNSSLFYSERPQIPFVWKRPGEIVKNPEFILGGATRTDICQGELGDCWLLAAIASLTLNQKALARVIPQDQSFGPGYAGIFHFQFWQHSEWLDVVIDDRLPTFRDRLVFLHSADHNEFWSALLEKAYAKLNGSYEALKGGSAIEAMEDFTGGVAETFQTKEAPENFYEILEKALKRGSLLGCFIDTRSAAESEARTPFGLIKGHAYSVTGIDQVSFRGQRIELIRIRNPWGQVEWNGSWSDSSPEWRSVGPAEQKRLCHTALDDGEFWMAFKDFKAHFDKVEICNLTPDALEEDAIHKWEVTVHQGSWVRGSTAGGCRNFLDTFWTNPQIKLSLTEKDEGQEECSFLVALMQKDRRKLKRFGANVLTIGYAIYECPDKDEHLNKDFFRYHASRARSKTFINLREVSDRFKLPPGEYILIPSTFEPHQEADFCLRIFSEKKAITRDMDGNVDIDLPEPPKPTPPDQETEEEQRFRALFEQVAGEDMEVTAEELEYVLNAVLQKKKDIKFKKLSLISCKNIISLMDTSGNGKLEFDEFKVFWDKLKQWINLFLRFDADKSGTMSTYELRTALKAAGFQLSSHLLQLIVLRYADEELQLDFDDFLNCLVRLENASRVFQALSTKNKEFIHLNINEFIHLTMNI
T2 sequence (P04632 1-268 partner): T1 sequence (P04632 1-268 partner)
Method in brief: as §1

[1] = tested on: Calpain activity in SH-SY5Y cells; experiment: SH-SY5Y spectrin breakdown product (SBDP-150) western blot assay; type: cell-based; settings: Homo sapiens, read-out: SH-SY5Y Spectrin IC50
[2] = tested on: Calpain activity in SH-SY5Y cells; experiment: SH-SY5Y Suc-LLVY-AMC fluorescence assay; type: cell-based; settings: Homo sapiens, read-out: SH-SY5Y + AMC IC50
Human Calpain 2/NS1 = target: T3, Human Calpain 2/NS1 (Homo sapiens, UniProt P17655); experiment: Calpain inhibition, continuous fluorescence (FRET substrate) assay, calpain 2; type: biochemical; settings: SensoLyte 520 FRET substrate, 25C
T3 sequence (P17655 1-700): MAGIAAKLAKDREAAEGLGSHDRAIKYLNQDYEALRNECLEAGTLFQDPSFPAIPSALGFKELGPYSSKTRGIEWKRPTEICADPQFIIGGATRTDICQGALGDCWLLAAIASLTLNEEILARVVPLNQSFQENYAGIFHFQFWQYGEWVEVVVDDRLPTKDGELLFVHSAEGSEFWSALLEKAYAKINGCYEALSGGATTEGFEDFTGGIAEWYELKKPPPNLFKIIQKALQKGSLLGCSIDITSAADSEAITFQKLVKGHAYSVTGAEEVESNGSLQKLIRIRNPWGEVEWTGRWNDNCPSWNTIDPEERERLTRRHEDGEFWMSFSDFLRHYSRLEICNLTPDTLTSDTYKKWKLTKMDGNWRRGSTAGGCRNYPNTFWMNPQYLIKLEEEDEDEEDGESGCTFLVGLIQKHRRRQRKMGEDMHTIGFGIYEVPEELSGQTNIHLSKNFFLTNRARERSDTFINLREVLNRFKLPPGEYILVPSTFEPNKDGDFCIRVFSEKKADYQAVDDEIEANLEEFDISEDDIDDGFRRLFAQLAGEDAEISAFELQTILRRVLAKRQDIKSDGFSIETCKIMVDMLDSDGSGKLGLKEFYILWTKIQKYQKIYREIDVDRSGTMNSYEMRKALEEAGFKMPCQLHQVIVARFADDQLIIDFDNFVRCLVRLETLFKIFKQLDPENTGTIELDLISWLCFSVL
T3 sequence (P04632 1-268 partner): T1 sequence (P04632 1-268 partner)
Method in brief: as §1

[3] = SH-SY5Y cells, 25 uM A23187, SBDP-150 western blot
[4] = SH-SY5Y cells, 100 uM Suc-LLVY-AMC

SMILES: NC(=O)C(=O)C(Cc1ccccc1)NC(=O)c1cn(C(F)F)nc1-c1cc(Cl)oc1Cl (centres unmarked) [Compound 36, N-(4-AMINO-3,4-DIOXO-1-PHENYLBUTAN-2-YL)-3-(2,5-DICHLOROFURAN-3-YL)-1-(DIFLUOROMETHYL)-1H-PYRAZOLE-4-CARBOXAMIDE]
IC50 (Human Calpain 1/NS1): < 3 µM
IC50 (Human Calpain 9/NS1): < 3 µM
IC50 [1, 3]: < 10 µM
IC50 [2, 4]: < 10 µM
IC50 (Human Calpain 2/NS1): < 3 µM

SMILES: COc1cc2nccc(-c3nn(C)cc3C(=O)NC(Cc3ccccc3)C(=O)C(N)=O)c2cc1OC (centres unmarked) [Compound 37, N-(4-AMINO-3,4-DIOXO-1-PHENYLBUTAN-2-YL)-3-(6,7-DIMETHOXYQUINOLIN-4-YL)-1-METHYL-1H-PYRAZOLE-4-CARBOXAMIDE]
IC50 (Human Calpain 1/NS1): < 3 µM
IC50 (Human Calpain 9/NS1): < 3 µM
IC50 [1, 3]: > 25 µM
IC50 [2, 4]: > 25 µM
IC50 (Human Calpain 2/NS1): < 3 µM

SMILES: COC(=O)C(=O)C(Cc1ccccc1)NC(=O)c1nsnc1-c1ccccc1 (centres unmarked) [Compound 38, METHYL 2-OXO-4-PHENYL-3-(4-PHENYL-1,2,5-THIADIAZOLE-3-CARBOXAMIDO)BUTANOATE]
IC50 (Human Calpain 1/NS1): < 3 µM
IC50 (Human Calpain 9/NS1): < 3 µM
IC50 [1, 3]: < 10 µM
IC50 [2, 4]: < 10 µM
IC50 (Human Calpain 2/NS1): < 3 µM

SMILES: COC(=O)C(=O)C(Cc1ccccc1)NC(=O)c1oc(C)nc1-c1ccccc1F (centres unmarked) [Compound 42, METHYL 3-(4-(2-FLUOROPHENYL)-2-METHYLOXAZOLE-5-CARBOXAMIDO)-2-OXO-4-PHENYLBUTANOATE]
IC50 (Human Calpain 1/NS1): < 3 µM
IC50 (Human Calpain 9/NS1): < 3 µM
IC50 [1, 3]: < 10 µM
IC50 [2, 4]: < 10 µM
IC50 (Human Calpain 2/NS1): < 3 µM

SMILES: Cc1cc(C(=O)NC(Cc2ccccc2)C(=O)C(N)=O)n(-c2nccc(-c3ccccc3)n2)n1 (centres unmarked) [Compound 45, N-(4-AMINO-3,4-DIOXO-1-PHENYLBUTAN-2-YL)-3-METHYL-1-(4-PHENYLPYRIMIDIN-2-YL)-1H-PYRAZOLE-5-CARBOXAMIDE]
IC50 (Human Calpain 1/NS1): < 3 µM
IC50 (Human Calpain 9/NS1): < 3 µM
IC50 ([1]; SH-SY5Y): 10 to 25 µM
IC50 ([2]; SH-SY5Y): < 10 µM
IC50 (Human Calpain 2/NS1): < 3 µM

SMILES: Cn1cc(C(=O)NC(Cc2ccccc2)C(=O)C(N)=O)c(-n2cnc3cc(F)ccc32)n1 (centres unmarked) [Compound 48, N-(4-AMINO-3,4-DIOXO-1-PHENYLBUTAN-2-YL)-3-(5-FLUORO-1H-BENZO[D]IMIDAZOL-1-YL)-1-METHYL-1H-PYRAZOLE-4-CARBOXAMIDE]
IC50 (Human Calpain 1/NS1): < 3 µM
IC50 (Human Calpain 9/NS1): < 3 µM
IC50 [1, 3]: < 10 µM
IC50 [2, 4]: 10 to 25 µM
IC50 (Human Calpain 2/NS1): < 3 µM

SMILES: NC(=O)C(=O)C(Cc1ccccc1)NC(=O)c1cn(C(F)F)nc1-c1cccc2oc(=O)[nH]c12 (centres unmarked) [Compound 50, N-(4-AMINO-3,4-DIOXO-1-PHENYLBUTAN-2-YL)-1-(DIFLUOROMETHYL)-3-(2-OXO-2,3-DIHYDROBENZO[D]OXAZOL-4-YL)-1H-PYRAZOLE-4-CARBOXAMIDE]
IC50 (Human Calpain 1/NS1): < 3 µM
IC50 (Human Calpain 9/NS1): < 3 µM
IC50 [1, 3]: 10 to 25 µM
IC50 [2, 4]: 10 to 25 µM
IC50 (Human Calpain 2/NS1): < 3 µM

The next lines start with the values.

IC50 (Human Calpain 1/NS1): < 3 µM
IC50 (Human Calpain 9/NS1): < 3 µM
IC50 [1, 3]: < 10 µM
IC50 [2, 4]: 10 to 25 µM
IC50 (Human Calpain 2/NS1): < 3 µM
SMILES: Cn1cc(C(=O)NC(Cc2ccccc2)C(=O)C(N)=O)c(-c2cccc3cn[nH]c23)n1 (centres unmarked) [Compound 39, N-(4-AMINO-3,4-DIOXO-1-PHENYLBUTAN-2-YL)-3-(1H-INDAZOL-7-YL)-1-METHYL-1H-PYRAZOLE-4-CARBOXAMIDE]

IC50 (Human Calpain 1/NS1): < 3 µM
IC50 (Human Calpain 9/NS1): < 3 µM
IC50 [1, 3]: > 25 µM
IC50 [2, 4]: < 10 µM
IC50 (Human Calpain 2/NS1): < 3 µM
SMILES: COC(=O)C(=O)C(Cc1ccccc1)NC(=O)c1cn(C)nc1-c1ccccc1F (centres unmarked) [Compound 40, METHYL 3-(3-(2-FLUOROPHENYL)-1-METHYL-1H-PYRAZOLE-4-CARBOXAMIDO)-2-OXO-4-PHENYLBUTANOATE]

IC50 (Human Calpain 1/NS1): < 3 µM
IC50 (Human Calpain 9/NS1): < 3 µM
IC50 [1, 3]: > 25 µM
IC50 [2, 4]: < 10 µM
IC50 (Human Calpain 2/NS1): < 3 µM
SMILES: COC(=O)C(=O)C(Cc1ccccc1)NC(=O)c1cn(C2CC2)nc1-c1ccccc1 (centres unmarked) [Compound 41, METHYL 3-(1-CYCLOPROPYL-3-PHENYL-1H-PYRAZOLE-4-CARBOXAMIDO)-2-OXO-4-PHENYLBUTANOATE]

IC50 (Human Calpain 1/NS1): < 3 µM
IC50 (Human Calpain 9/NS1): < 3 µM
IC50 [1, 3]: < 10 µM
IC50 [2, 4]: < 10 µM
IC50 (Human Calpain 2/NS1): < 3 µM
SMILES: Cc1occc1-c1nsnc1C(=O)NC(Cc1ccccc1)C(=O)C(N)=O (centres unmarked) [Compound 46, N-(4-AMINO-3,4-DIOXO-1-PHENYLBUTAN-2-YL)-4-(2-METHYLFURAN-3-YL)-1,2,5-THIADIAZOLE-3-CARBOXAMIDE]

IC50 (Human Calpain 1/NS1): < 3 µM
IC50 (Human Calpain 9/NS1): < 3 µM
IC50 [1, 3]: 10 to 25 µM
IC50 [2, 4]: > 25 µM
IC50 (Human Calpain 2/NS1): < 3 µM
SMILES: Cn1cc(C(=O)NC(Cc2ccccc2)C(=O)C(N)=O)c(-n2cnc3ccc(F)cc32)n1 (centres unmarked) [Compound 47, N-(4-AMINO-3,4-DIOXO-1-PHENYLBUTAN-2-YL)-3-(6-FLUORO-1H-BENZO[D]IMIDAZOL-1-YL)-1-METHYL-1H-PYRAZOLE-4-CARBOXAMIDE]

IC50 (Human Calpain 1/NS1): < 3 µM
IC50 (Human Calpain 9/NS1): < 3 µM
IC50 [1, 3]: > 25 µM
IC50 [2, 4]: 10 to 25 µM
IC50 (Human Calpain 2/NS1): < 3 µM
SMILES: Cn1cc(C(=O)NC(Cc2ccccc2)C(=O)C(N)=O)c(-c2ncnc3ccccc23)n1 (centres unmarked) [Compound 49, N-(4-AMINO-3,4-DIOXO-1-PHENYLBUTAN-2-YL)-1-METHYL-3-(QUINAZOLIN-4-YL)-1H-PYRAZOLE-4-CARBOXAMIDE]

From patent US20210009564A1, “CALPAIN MODULATORS AND THERAPEUTIC USES THEREOF” (BLADE THERAPERTICS, INC., priority 2018, published 2021)
